Source: patent publication US7553967B2, “1,2-Dihydroquinoline derivatives and method for using the same to treat HIV infections” (Wyeth, priority 2004, dated 2009)

Target: T1, HIV Reverse transcriptase (RT) 66/p51 (Human immunodeficiency virus type 1 group M subtype B, UniProt P04585)
T1 construct: HIV Reverse transcriptase (RT) 66/p51; purchased Worthington
Assay: RNA dependent DNA polymerase (RDDP) activity of HIV RT, 33P-TTP incorporation on polyrA-oligodT12-18, filter plate
Type: biochemical

`Cc1cn([C@H]2C[C@H](N=[N+]=[N-])[C@@H](CO)O2)c(=O)[nH]c1=O` [AZT] gave an IC50 of under 200 nM.
